{"source": "patent US20130190200A1", "about": "“SNP FOR PREDICTING THE SENSITIVITY TO ANTICANCER TARGETED THERAPEUTIC FORMULATION” (Korea Research Institute of Bioscience and Biotechnology, priority 2010, published 2013)", "key": {"[1]": {"tested_on": "recurrent and metastatic colorectal cancer patients", "experiment": "Clinical association analysis related to survival on subjects treated with anticancer targeted drugs", "format": "in vivo, human", "description": "(§1) The prediction of clinical outcomes of the corresponding patients was based on the NCCN surveillance guidelines (www.nccn.org), and the determination of chemosensitivity to anticancer drugs were based on the RECIST criteria (Therasse et al., J Natl Cancer Inst 2000; 92:205-16).\nAssociation analysis was performed on the SNP genotypes sensitive to the individual anticancer drugs obtained in steps (1) and (2) in colorectal cancer patients whose treatment with the corresponding drugs was terminated."}, "[2]": {"tested_on": "metastatic cancer patients", "experiment": "Clinical association analysis of drug response (RECIST criteria) on subjects treated with anticancer targeted drugs", "format": "in vivo, human", "settings": "homozygous substitution alleles of ANXA11 rs1049550 and homozygous or heterozygous substitution alleles of LINS1 rs11247226; P=0.025, 0.019", "source_text": "as §1"}}}
{"substance": "bevacizumab", "values": [{"measurement": "sensitivity and survival, in words (FIG. 2)", "setting": "[1]; homozygous or heterozygous substitution alleles of ITGA3 rs2230392 vs homozygous reference alleles", "value": "greater sensitivity and longer progression-free survival and overall survival"}, {"measurement": "mean overall survival (OS)", "setting": "[1]; patients carrying homozygous or heterozygous substitution alleles of ITGA3 rs2230392, P=0.006 vs homozygous reference", "value": "22.5±2.1", "unit": "months"}, {"measurement": "mean progression-free survival (PFS)", "setting": "[1]; patients carrying homozygous or heterozygous substitution alleles of ITGA3 rs2230392, P=0.018 vs homozygous reference", "value": "8.7±0.7", "unit": "months"}, {"measurement": "mean overall survival (OS)", "setting": "[1]; patients with homozygous reference alleles of ITGA3 rs2230392, P=0.006", "value": "13.4±1.9", "unit": "months"}, {"measurement": "mean progression-free survival (PFS)", "setting": "[1]; patients with homozygous reference alleles of ITGA3 rs2230392, P=0.018", "value": "5.7±0.7", "unit": "months"}, {"measurement": "disease-control response rate, in words", "setting": "[2]", "value": "significantly high disease-control response rate"}]}
